According to US6060482A, “Triazaspirodecanone-methylchromans” (Bayer Aktiengesellschaft, priority 1991, dated 2000):
Counter-ions that a name gives are not always drawn.

Legend:
dopamine D2 receptor = molecular target: T1, dopamine D2 receptor (Rattus norvegicus, UniProt P61169); test: Dopamine D2 receptor test, binding of 3H-sulpiride on membranes from the striatum of the rat; details: Ki calculated from IC50 of displacement curves
T1 construct: membranes from the striatum of the rat; from tissue; host or cells: rat striatum membranes
Protocol: Dopamine D2 receptor test
This test is carried out according to the following reference: Imafuku J. (1987), Brain Research 402; 331-338.
In this test, the binding of the selective D2 -receptor antagonist ^3 H-sulpiride on membranes from the striatum of the rat is measured. Compounds which bind to dopamine D2 -receptors inhibit the binding of ^3 H-sulpiride in a concentration-dependent manner. IC50 values are determined from the displacement curves and the inhibition constants Ki are calculated from these.

5-HT1 receptor = test: Affinity for the 5-HT1 receptor, receptor binding studies with 3H-serotonin on calf hippocampus membrane preparations
Source text: Affinity for the 5-HT1 receptor
In Table 1, the high affinity of the compounds according to the invention for 5-hydroxytryptamine receptors of the subtype 1 is represented by way of example. The values given are data which have been determined from receptor binding studies using calf hippocampus membrane preparations. The radioactively labelled ligand used for this was ^3 H-serotonin.

5-HT1A receptor = molecular target: T2, 5-HT1A receptor (Bos taurus, UniProt F6Q2H9); test: Affinity for the 5-HT1A receptor, binding of 3H-ipsapirone in calf hippocampus membranes
T2 construct: 5-HT1A receptors in calf hippocampus membranes; from tissue; host or cells: calf hippocampus membranes
T2 sequence (F6Q2H9 1-422): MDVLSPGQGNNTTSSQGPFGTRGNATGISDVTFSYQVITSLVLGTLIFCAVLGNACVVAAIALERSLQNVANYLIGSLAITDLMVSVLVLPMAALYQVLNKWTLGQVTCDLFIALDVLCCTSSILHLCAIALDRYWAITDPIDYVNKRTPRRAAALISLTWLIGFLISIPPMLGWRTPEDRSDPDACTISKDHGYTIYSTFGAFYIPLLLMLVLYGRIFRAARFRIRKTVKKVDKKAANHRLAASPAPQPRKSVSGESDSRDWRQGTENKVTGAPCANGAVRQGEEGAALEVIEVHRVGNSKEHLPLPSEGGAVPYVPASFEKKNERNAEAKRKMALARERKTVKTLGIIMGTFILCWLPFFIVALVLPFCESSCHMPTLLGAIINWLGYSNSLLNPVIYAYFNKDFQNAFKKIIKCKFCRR
Protocol: Affinity for the 5-HT1A receptor
[W. U. Dompert et al., Naunyn-Schmiedeberg's Arch. Pharmacol. (1985), 328, 467-470].
In this test, the binding of ^3 H-ipsapirone to 5-HT1A receptors in calf hippocampus membranes is measured.

T1 sequence (P61169 whole entry): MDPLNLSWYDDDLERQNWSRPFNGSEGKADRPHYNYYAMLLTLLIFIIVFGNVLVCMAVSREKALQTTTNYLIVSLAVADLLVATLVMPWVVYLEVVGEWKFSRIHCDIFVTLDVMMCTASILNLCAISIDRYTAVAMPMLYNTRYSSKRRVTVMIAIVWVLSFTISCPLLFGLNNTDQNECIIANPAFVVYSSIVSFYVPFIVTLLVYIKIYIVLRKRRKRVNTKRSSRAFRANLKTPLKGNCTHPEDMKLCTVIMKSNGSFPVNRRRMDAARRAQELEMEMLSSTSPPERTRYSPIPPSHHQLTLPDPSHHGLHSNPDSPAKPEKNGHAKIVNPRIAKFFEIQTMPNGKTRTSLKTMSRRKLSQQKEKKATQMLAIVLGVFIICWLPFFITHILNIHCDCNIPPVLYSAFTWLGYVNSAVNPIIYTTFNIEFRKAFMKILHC

Row | SMILES | Ki (dopamine D2 receptor) | Ki (5-HT1 receptor) | Ki (5-HT1A receptor)
1 | O=C1NCN(c2ccccc2)C12CCN(CC1CCc3ccccc3O1)CC2 (centres unmarked) [Example 1, 8-(Chroman-2-yl-methyl)-1-phenyl-1,3,8-triazaspiro[4.5]-decan-4-one] | 0.2 nM | 2 nM | –
2 | O=C1NCN(c2ccccc2)C12CCN(C[C@@H]1CCc3ccccc3O1)CC2 [Example 3] | 0.6 nM | – | –
3 | O=C1NCN(c2ccccc2)C12CCN(CC1CCc3ccccc3O1)CC2 (centres unmarked) [Example 5, 8-(Chroman-2-yl-methyl)-1-phenyl-1,3,8-triazaspiro[4.5]-decan-4-one HCl salt] | – | – | 1 nM
4 | COc1cccc2c1OC(CN1CCC3(CC1)C(=O)NCN3c1ccccc1)CC2 (centres unmarked) [Example 2] | 0.3 nM | 1.5 nM | –
5 | O=C1NCN(c2ccccc2)C12CCN(C[C@H]1CCc3ccccc3O1)CC2 [Example 4] | – | 1 nM | –
6 | COc1cccc2c1OC(CN1CCC3(CC1)C(=O)NCN3c1ccccc1)CC2 (centres unmarked) [Example 6] | – | – | 1 nM
